# From the supplement of paper PMC10307832
# Legend:
# Test in all cases: relative viability (nuclei count vs DMSO), 5 days (fraction); higher = more cells survive
# [1] = system: LCLC-97TM1
# Procedure, shortened: (§1)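 Five library-drug doses in √10 steps were combined with a fixed anchor-drug dose, or a single drug was given alone, by pin tool to lung cancer cell lines in 1536-well plates the day after seeding. Nuclei were stained and counted after 5 days. Relative viability is the nuclei count in treated wells over that in vehicle wells, taken as the median of duplicate plates.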
# [2] = system: PC-3 [JPC-3]
# Procedure, shortened: as §1
# [3] = system: NCI-H1734
# Procedure, shortened: as §1
# [4] = system: NCI-H1355
# Procedure, shortened: as §1
# [5] = system: NCI-H1975
# Procedure, shortened: as §1
# [6] = system: H3255
# Procedure, shortened: as §1
# [7] = system: HCC-15
# Procedure, shortened: as §1
# [8] = system: LK-2
# Procedure, shortened: as §1
# [9] = system: NCI-H322M
# Procedure, shortened: as §1
# [10] = system: NCI-H520
# Procedure, shortened: as §1
# [11] = system: RERF-LC-KJ
# Procedure, shortened: as §1
# [12] = system: NCI-H2405
# Procedure, shortened: as §1
# [13] = system: NCI-H2228
# Procedure, shortened: as §1
# [14] = system: EKVX
# Procedure, shortened: as §1
# [15] = system: CAL-12T
# Procedure, shortened: as §1
# [16] = system: PC-14
# Procedure, shortened: as §1
# [17] = system: NCI-H1755
# Procedure, shortened: as §1
# [18] = system: HCC-827
# Procedure, shortened: as §1
# [19] = system: NCI-H1563
# Procedure, shortened: as §1
# [20] = system: NCI-H661
# Procedure, shortened: as §1
compound,measurement,setting,value
Cc1sc2c(c1C)C(c1ccc(Cl)cc1)=N[C@@H](CC(=O)OC(C)(C)C)c1nnc(C)n1-2 [JQ1] + Cc1nc(NC(=O)N2CCC[C@H]2C(N)=O)sc1-c1ccnc(C(C)(C)C(F)(F)F)c1 [Alpelisib] (partner 2 µM),relative viability,[1]; first compound 0.1265 µM,0.233
same,relative viability,[1]; first compound 0.4 µM,0.232
same,relative viability,[1]; first compound 1.265 µM,0.133
same,relative viability,[1]; first compound 4 µM,0.128
same,relative viability,[2]; first compound 0.04 µM,1.06
same,relative viability,[2]; first compound 0.1265 µM,1.03
same,relative viability,[2]; first compound 0.4 µM,1.09
same,relative viability,[2]; first compound 1.265 µM,0.775
same,relative viability,[2]; first compound 4 µM,0.608
same,relative viability,[3]; first compound 0.04 µM,0.709
same,relative viability,[3]; first compound 0.1265 µM,0.645
same,relative viability,[3]; first compound 0.4 µM,0.637
same,relative viability,[3]; first compound 1.265 µM,0.544
same,relative viability,[3]; first compound 4 µM,0.421
same,relative viability,[4]; first compound 0.04 µM,0.856
same,relative viability,[4]; first compound 0.1265 µM,0.84
same,relative viability,[4]; first compound 0.4 µM,0.71
same,relative viability,[4]; first compound 1.265 µM,0.508
same,relative viability,[4]; first compound 4 µM,0.438
same,relative viability,[5]; first compound 0.04 µM,0.662
same,relative viability,[5]; first compound 0.1265 µM,0.424
same,relative viability,[5]; first compound 0.4 µM,0.578
same,relative viability,[5]; first compound 1.265 µM,0.348
same,relative viability,[5]; first compound 4 µM,0.335
same,relative viability,[6]; first compound 0.04 µM,0.691
same,relative viability,[6]; first compound 0.1265 µM,0.62
same,relative viability,[6]; first compound 0.4 µM,0.619
same,relative viability,[6]; first compound 1.265 µM,0.34
same,relative viability,[6]; first compound 4 µM,0.296
same,relative viability,[7]; first compound 0.04 µM,0.806
same,relative viability,[7]; first compound 0.4 µM,0.768
same,relative viability,[7]; first compound 1.265 µM,0.417
same,relative viability,[7]; first compound 4 µM,0.449
same,relative viability,[8]; first compound 0.04 µM,1.05
same,relative viability,[8]; first compound 0.1265 µM,1.06
same,relative viability,[8]; first compound 0.4 µM,0.55
same,relative viability,[8]; first compound 1.265 µM,0.237
same,relative viability,[8]; first compound 4 µM,0.16
same,relative viability,[9]; first compound 0.04 µM,0.752
same,relative viability,[9]; first compound 0.1265 µM,0.77
same,relative viability,[9]; first compound 0.4 µM,0.862
same,relative viability,[9]; first compound 1.265 µM,0.68
same,relative viability,[9]; first compound 4 µM,0.587
same,relative viability,[10]; first compound 0.04 µM,0.798
same,relative viability,[10]; first compound 0.1265 µM,0.934
same,relative viability,[10]; first compound 0.4 µM,0.667
same,relative viability,[10]; first compound 1.265 µM,0.38
same,relative viability,[10]; first compound 4 µM,0.268
same,relative viability,[11]; first compound 0.04 µM,0.806
same,relative viability,[11]; first compound 0.1265 µM,0.925
same,relative viability,[11]; first compound 0.4 µM,0.793
same,relative viability,[11]; first compound 1.265 µM,0.743
same,relative viability,[11]; first compound 4 µM,0.427
same,relative viability,[12]; first compound 0.04 µM,0.824
same,relative viability,[12]; first compound 0.4 µM,0.74
same,relative viability,[12]; first compound 1.265 µM,0.436
same,relative viability,[12]; first compound 4 µM,0.256
same,relative viability,[13]; first compound 0.04 µM,0.644
same,relative viability,[13]; first compound 0.1265 µM,0.602
same,relative viability,[13]; first compound 0.4 µM,0.504
same,relative viability,[13]; first compound 1.265 µM,0.497
same,relative viability,[13]; first compound 4 µM,0.451
same,relative viability,[14]; first compound 0.04 µM,0.834
same,relative viability,[14]; first compound 0.1265 µM,0.8
same,relative viability,[14]; first compound 0.4 µM,0.688
same,relative viability,[14]; first compound 1.265 µM,0.729
same,relative viability,[14]; first compound 4 µM,0.664
same,relative viability,[15]; first compound 0.04 µM,1.08
same,relative viability,[15]; first compound 0.1265 µM,1.42
same,relative viability,[15]; first compound 0.4 µM,0.919
same,relative viability,[15]; first compound 1.265 µM,0.325
same,relative viability,[15]; first compound 4 µM,0.328
same,relative viability,[16]; first compound 0.04 µM,0.974
same,relative viability,[16]; first compound 0.1265 µM,0.921
same,relative viability,[16]; first compound 0.4 µM,0.885
same,relative viability,[16]; first compound 1.265 µM,0.59
same,relative viability,[16]; first compound 4 µM,0.351
same,relative viability,[17]; first compound 0.04 µM,0.916
same,relative viability,[17]; first compound 0.1265 µM,0.918
same,relative viability,[17]; first compound 0.4 µM,1.01
same,relative viability,[17]; first compound 1.265 µM,0.623
same,relative viability,[17]; first compound 4 µM,0.533
same,relative viability,[18]; first compound 0.04 µM,0.929
same,relative viability,[18]; first compound 0.4 µM,0.672
same,relative viability,[18]; first compound 1.265 µM,1.07
same,relative viability,[18]; first compound 4 µM,1.11
same,relative viability,[19]; first compound 0.04 µM,0.846
same,relative viability,[19]; first compound 0.1265 µM,0.854
same,relative viability,[19]; first compound 0.4 µM,0.932
same,relative viability,[19]; first compound 1.265 µM,0.573
same,relative viability,[19]; first compound 4 µM,0.613
same,relative viability,[20]; first compound 0.04 µM,0.524
same,relative viability,[20]; first compound 0.1265 µM,0.529
same,relative viability,[20]; first compound 0.4 µM,0.71
same,relative viability,[20]; first compound 1.265 µM,0.549
same,relative viability,[20]; first compound 4 µM,0.465
Nc1ccn([C@@H]2O[C@H](CO)[C@@H](O)[C@@H]2O)c(=O)n1 [Cytarabine] + C[C@]1(O)C[C@@H](c2nc(-c3ccc4ccc(-c5ccccc5)nc4c3)c3c(N)nccn32)C1 [Linsitinib] (partner 1 µM),relative viability,[1]; first compound 0.005 µM,0.167
same,relative viability,[1]; first compound 0.01581 µM,0.148
same,relative viability,[1]; first compound 0.05 µM,0.111
same,relative viability,[1]; first compound 0.1581 µM,0.101
same,relative viability,[1]; first compound 0.5 µM,0.0967
same,relative viability,[2]; first compound 0.005 µM,0.889
same,relative viability,[2]; first compound 0.01581 µM,0.903
same,relative viability,[2]; first compound 0.05 µM,0.866
same,relative viability,[2]; first compound 0.1581 µM,0.691
same,relative viability,[2]; first compound 0.5 µM,0.65
same,relative viability,[3]; first compound 0.005 µM,0.512
same,relative viability,[3]; first compound 0.01581 µM,0.328
same,relative viability,[3]; first compound 0.05 µM,0.257
same,relative viability,[3]; first compound 0.1581 µM,0.141
same,relative viability,[3]; first compound 0.5 µM,0.128
same,relative viability,[4]; first compound 0.005 µM,0.788
same,relative viability,[4]; first compound 0.01581 µM,0.8
same,relative viability,[4]; first compound 0.05 µM,0.627
same,relative viability,[4]; first compound 0.1581 µM,0.451
same,relative viability,[4]; first compound 0.5 µM,0.32
same,relative viability,[5]; first compound 0.005 µM,0.97
same,relative viability,[5]; first compound 0.01581 µM,1.08
same,relative viability,[5]; first compound 0.05 µM,0.973
same,relative viability,[5]; first compound 0.1581 µM,0.764
same,relative viability,[5]; first compound 0.5 µM,0.356
same,relative viability,[6]; first compound 0.005 µM,0.945
same,relative viability,[6]; first compound 0.01581 µM,0.885
same,relative viability,[6]; first compound 0.05 µM,0.808
same,relative viability,[6]; first compound 0.1581 µM,0.784
same,relative viability,[6]; first compound 0.5 µM,0.674
same,relative viability,[7]; first compound 0.005 µM,0.902
same,relative viability,[7]; first compound 0.01581 µM,0.912
same,relative viability,[7]; first compound 0.05 µM,0.903
same,relative viability,[7]; first compound 0.1581 µM,0.72
same,relative viability,[7]; first compound 0.5 µM,0.585
same,relative viability,[8]; first compound 0.005 µM,0.494
same,relative viability,[8]; first compound 0.01581 µM,0.58
same,relative viability,[8]; first compound 0.05 µM,0.247
same,relative viability,[8]; first compound 0.1581 µM,0.215
same,relative viability,[8]; first compound 0.5 µM,0.162
same,relative viability,[9]; first compound 0.005 µM,0.822
same,relative viability,[9]; first compound 0.01581 µM,0.707
same,relative viability,[9]; first compound 0.05 µM,0.628
same,relative viability,[9]; first compound 0.1581 µM,0.464
same,relative viability,[9]; first compound 0.5 µM,0.43
same,relative viability,[10]; first compound 0.005 µM,0.556
same,relative viability,[10]; first compound 0.01581 µM,1.09
same,relative viability,[10]; first compound 0.05 µM,0.952
same,relative viability,[10]; first compound 0.1581 µM,0.751
same,relative viability,[10]; first compound 0.5 µM,0.752
same,relative viability,[11]; first compound 0.005 µM,0.771
same,relative viability,[11]; first compound 0.01581 µM,0.787
same,relative viability,[11]; first compound 0.05 µM,0.757
same,relative viability,[11]; first compound 0.1581 µM,0.474
same,relative viability,[11]; first compound 0.5 µM,0.458
same,relative viability,[12]; first compound 0.005 µM,0.933
same,relative viability,[12]; first compound 0.01581 µM,0.714
same,relative viability,[12]; first compound 0.05 µM,0.661
same,relative viability,[12]; first compound 0.1581 µM,0.498
same,relative viability,[12]; first compound 0.5 µM,0.383
same,relative viability,[13]; first compound 0.005 µM,0.675
same,relative viability,[13]; first compound 0.01581 µM,0.546
same,relative viability,[13]; first compound 0.05 µM,0.492
same,relative viability,[13]; first compound 0.1581 µM,0.152
same,relative viability,[13]; first compound 0.5 µM,0.0885
same,relative viability,[14]; first compound 0.005 µM,0.731
same,relative viability,[14]; first compound 0.01581 µM,0.853
same,relative viability,[14]; first compound 0.05 µM,0.945
same,relative viability,[14]; first compound 0.1581 µM,0.585
same,relative viability,[14]; first compound 0.5 µM,0.242
same,relative viability,[15]; first compound 0.005 µM,0.72
same,relative viability,[15]; first compound 0.01581 µM,0.878
same,relative viability,[15]; first compound 0.05 µM,0.747
same,relative viability,[15]; first compound 0.1581 µM,0.39
same,relative viability,[15]; first compound 0.5 µM,0.203
same,relative viability,[16]; first compound 0.005 µM,0.967
same,relative viability,[16]; first compound 0.01581 µM,0.862
same,relative viability,[16]; first compound 0.05 µM,0.761
same,relative viability,[16]; first compound 0.1581 µM,0.436
same,relative viability,[16]; first compound 0.5 µM,0.464
same,relative viability,[17]; first compound 0.005 µM,0.936
same,relative viability,[17]; first compound 0.01581 µM,0.873
same,relative viability,[17]; first compound 0.05 µM,0.858
same,relative viability,[17]; first compound 0.1581 µM,0.31
same,relative viability,[17]; first compound 0.5 µM,0.271
same,relative viability,[18]; first compound 0.005 µM,0.631
same,relative viability,[18]; first compound 0.01581 µM,0.604
same,relative viability,[18]; first compound 0.05 µM,0.488
same,relative viability,[18]; first compound 0.1581 µM,0.266
same,relative viability,[18]; first compound 0.5 µM,0.262
same,relative viability,[19]; first compound 0.005 µM,1.14
same,relative viability,[19]; first compound 0.01581 µM,1.3
same,relative viability,[19]; first compound 0.05 µM,1.04
same,relative viability,[19]; first compound 0.1581 µM,1
same,relative viability,[19]; first compound 0.5 µM,0.769
same,relative viability,[20]; first compound 0.005 µM,0.624
same,relative viability,[20]; first compound 0.01581 µM,0.529
same,relative viability,[20]; first compound 0.05 µM,0.445
same,relative viability,[20]; first compound 0.1581 µM,0.286
same,relative viability,[20]; first compound 0.5 µM,0.21
